# In publication PMC9455983 (International Journal of Molecular Sciences, 2022):
# Where two headings read alike, the source gives them in different places.
# Key:
# [1] = target: T1, kappa-opioid receptor (KOR) (Cavia porcellus, UniProt P41144); assay: KOR radioligand competition binding assay ([3H]U69,593); design: species or system guinea pig; conditions: Kappa screening results
# T1 construct: Guinea pig cortices and cerebella were homogenized using 50 mM Tris, pH 7.4; from tissue; host or cells: guinea pig cortex and cerebellum membranes
# How it was run: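 Guinea pig cortex and cerebellum homogenates in 50 mM Tris pH 7.4 with 10 mM MgCl2, 2 nM [3H]U69,593, 2 h at 25 °C. Unlabeled U50,488 gave the standard curve and nonspecific binding. Filtration on BSA-soaked GF/B filters, scintillation counting; two replicates, repeated twice, mean ± SD.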
# [2] = test system: C57BL/6J mice; assay: 55 °C warm-water tail-withdrawal assay (antinociception); type: in vivo, mouse; conditions: for ED50 (and 95% Confidence Interval (C.I.)) Values, i.c.v. (nmol): antinociception at peak response, mice, * ED50 estimated where maximum antinociception not achieved; for duration of significant antinociception: maximum doses tested
# Protocol: For intracerebroventricular (i.c.v.) administration, the 1968-series compounds were dissolved in dimethyl sulfoxide (DMSO), followed by the addition of sterile saline (0.9%) so that the final vehicle was 50% DMSO and 50% saline, and the i.c.v. injections were performed as described previously. For per os (p.o.) administration, 1968-4 and 1968-22 were administered in 10% Ethanol/10%Tween-80/80% 0.9% saline. All solutions for animal administration were prepared fresh daily.
# Antinociception was calculated according to the following formula: % antinociception = 100 × (test latency − control latency)/(15 − control latency). Tail-withdrawal data points are the means of 8–16 mice, unless otherwise indicated, with SEM shown by error bars.
# All dose–response lines were analyzed by regression, and ED50 (effective dose producing 50% antinociception) values and 95% confidence intervals (C.I.) were determined using individual data points from graded dose–response curves with Prism 8.0 software (GraphPad, La Jolla, CA, USA). Percent antinociception was used to determine within group effects and to allow comparison to baseline latency in tail-withdrawal experiments. The statistical significance of differences between ED50 values was determined by evaluation of the ED50 value shift via nonlinear regression modeling with Prism software. Significant differences in behavioral data were analyzed by ANOVA (one-way or two-way with repeated measures (RM), as appropriate). Significant results were further analyzed with Sidak’s, Tukey’s, or Dunnett’s multiple comparison post hoc tests, as appropriate. Data for conditioned place preference experiments were analyzed by two-way RM ANOVA, with analyses examining the main effect of the conditioned place preference phase (e.g., pre- or post-conditioning) and the interaction of drug pretreatment. Significant effects were further analyzed using Sidak’s HSD post hoc testing. All data are presented as mean ± SEM, with significance set at p < 0.05.
# [3] = target: T2, delta-opioid receptor (DOR) (Rattus norvegicus, UniProt P33533); assay: DOR radioligand competition binding assay ([3H]-DPDPE); conditions: Delta screening results
# T2 construct: Rat cortices were homogenized using 50 mM Tris, pH 7.4, 10 mM MgCl2-6H2O, 200 µM PMSF; from tissue; host or cells: rat cortex membranes
# How it was run: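 Competition binding on rat cortical homogenate in 50 mM Tris pH 7.4, 10 mM MgCl2, 200 µM PMSF with 2 nM [3H]-DPDPE, 2.5 h at 25 °C. Unlabeled DPDPE defined nonspecific binding; filtration onto BSA-soaked GF/B filters, scintillation counting. Mean ± SD of two experiments in duplicate.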
# [4] = target: T3, mu-opioid receptor (MOR) (Rattus norvegicus, UniProt P33535); assay: MOR radioligand competition binding assay ([3H]-DAMGO); conditions: Mu screening results
# T3 construct: Rat cortices were homogenized using 50 mM Tris, pH 7.4, and centrifuged at 16,500 rpm for 10 min; from tissue; host or cells: rat cortex membranes
# How it was run: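 Rat cortical membranes in 50 mM Tris pH 7.4 with 2 mg/mL bovine serum were incubated with 2 nM [3H]-DAMGO and test compound. Bound radioligand was separated by filtration on BSA-soaked GF/B filters and counted by scintillation. Values are mean ± SD of two experiments, each in duplicate.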
# [5] = test system: C57BL/6J mice; assay: Opioid receptor involvement in antinociception (antagonist pretreatment, tail-withdrawal assay); type: in vivo, mouse
# Protocol: Pretreatment of mice with the opioid antagonist naloxone (10 mg/kg, s.c., −15 min) was used to assess receptor contribution to the observed antinociception induced by maximal tested doses of each 1968-series compound tested.
# The opioid receptor involvement in the agonist activity of the heterocyclic peptidomimetics was determined by pretreating mice with a single dose of β-funaltrexamine (β-FNA, 10 mg/kg, i.p.) or nor-BNI (10 mg/kg, i.p.) 24 h in advance of administration of a dose of 1968-series compound.
# [6] = target: δ opioid receptor; design: method as in PMID 25996309; conditions: cited from earlier work
# [7] = target: κ opioid receptor; design: method as in PMID 25996309; conditions: cited from earlier work
# [8] = test system: C57BL/6J mice; assay: Acute antinociceptive tolerance determination
# [9] = test system: C57BL/6J mice; assay: Conditioned place preference / aversion; type: in vivo, mouse; conditions: 10 mg/kg, i.p.; two days of place conditioning
# [10] = test system: C57BL/6J mice; assay: Ambulation (locomotor activity) in CLAMS/Oxymax system; type: in vivo, mouse; conditions: 100 nmol, i.c.v.
# Protocol: (§1) Respiration rates (in breaths per minute) and animal locomotive activity (as ambulations) were assessed using the Oxymax/CLAMS system (Columbus Instruments, Columbus, OH), as described previously. Mice were habituated to their individual sealed housing chambers for 60 min before testing. Mice were administered 1968-22 (0.3–100 nmol, i.c.v.), morphine (100 nmol, i.c.v.), or vehicle, as indicated, and five min later confined to the CLAMS testing chambers. Pressure monitoring within the sealed chambers measured frequency of respiration. Infrared beams located in the floor measured locomotion as number of beam breaks. Respiration and locomotive data were averaged over 20 min periods for 120 min post-injection of the test compound. Data are presented as % vehicle response ± SEM, ambulation or breaths per minute.
# [11] = test system: C57BL/6J mice; assay: Respiration rate in CLAMS/Oxymax system; type: in vivo, mouse; conditions: 100 nmol, i.c.v.
# Protocol: as §1
# [12] = experiment 1, unit inferred, read-out: Ki (Exp 1)
# [13] = experiment 2, unit inferred, read-out: Ki (Exp 2)
# [14] = mean of Exp 1 and Exp 2, unit inferred, read-out: MEAN (Ki)
# [15] = mean of two experiments, read-out: Ki
# [16] = first Ki column, unit not printed (apparently M), read-out: Ki (first column)
# [17] = mean of both Ki, unit inferred, read-out: MEAN (Ki)
# [18] = second Ki column, unit not printed (apparently M), read-out: Ki (second column)
SMILES,"Ki [1, 12] [nM]","Ki [1, 13] [nM]","Ki [1, 14] [nM]","Ki [1, 15] [nM]",time of peak antinociception after i.c.v. administration ([2]; i.c.v.) [min],"ED50 (and 95% Confidence Interval (C.I.)) Values, i.c.v. (nmol) ([2]; i.c.v.)",duration of significant antinociception ([2]; i.c.v.) [min],"Ki [3, 16] [nM]","Ki [3, 17] [nM]","Ki [3, 15] [nM]","Ki [3, 18] [nM]","Ki [4, 12] [nM]","Ki [4, 13] [nM]","Ki [4, 14] [nM]","Ki [4, 15] [nM]",also measured
Cc1cc(O)cc(C)c1C[C@H]1CN([C@@H](Cc2ccc(O)cc2)CN2C(=N)NC[C@@H]2Cc2ccccc2)C(=N)N1 [1968-4],311,178,245,245,30,20.8 (5.52–127.1) nmol,60,729,874,874,1020,16.9,9.51,13.2,13,"antinociception at the highest dose tested ([2]; 30 nmol, i.c.v.): approximately 60%; antinociception after oral administration (in words) ([2]; 10 mg/kg, p.o.): significant antinociception; duration of significant antinociception after oral administration ([2]; 10 mg/kg, p.o.): brief"
Cc1cc(O)cc(C)c1C[C@@H](CN1C(=N)NC[C@@H]1C)N1C[C@H](Cc2ccc(O)cc2)NC1=N [1968-16],246,293,270,270,,2.00 (0.5–7.45) nmol,70,616,697,697,777,7.52,9.24,8.38,8,"effect of naloxone pretreatment on antinociception ([5]; naloxone 10 mg/kg, s.c., −15 min, maximal tested i.c.v. dose of compound): most susceptible to antagonism by naloxone; effect of naltrindole (DOR antagonist) pretreatment on antinociception ([5]; naltrindole 20 mg/kg, i.p., −20 min, 1968-16 30 nmol or 1968-22 0.3 nmol, i.c.v.): significantly antagonized; effect of nor-BNI (KOR antagonist) pretreatment on antinociception ([5]; nor-BNI 10 mg/kg, i.p., −24 h, 1968-16 30 nmol or 1968-22 0.3 nmol, i.c.v.): significantly antagonized; effect of β-FNA (MOR antagonist) pretreatment on antinociception ([5]; β-FNA 10 mg/kg, i.p., −24 h, 1968-16 30 nmol or 1968-22 0.3 nmol, i.c.v.): significantly antagonized"
CC(C)C[C@H]1CN2C(=CC3=NC[C@H](C(C)C)N3C[C@@H]2Cc2ccc(O)cc2)N1CCc1ccccc1 [Diimidazodiazepine 14],,,,,,,,,,,,,,,,Ki [6]: 32 ± 6 nM; Ki [7]: 23 ± 12 nM
"CN1CC[C@]23c4c5ccc(O)c4O[C@H]2[C@@H](O)C=C[C@H]3[C@H]1C5 [Morphine, morphine, reference compound]",,,,,30,3.09 (2.76–3.50) nmol,,,,,,,,,,"fold rightward shift in dose-response curve of the second dose (acute tolerance) ([8]; ED50 dose i.c.v. at 0 h, graded doses at 8 h): 7.71 fold; ED50 (95% C.I.) of second dose at 8 h ([8]; i.c.v., after ED50 pretreatment at 0 h): 23.8 (17.0–31.6) nmol; place conditioning result [9]: significant place preference; effect on ambulation vs vehicle [10]: elevated ambulations; effect on respiration rate vs vehicle [11]: significant, time-dependent respiratory depression"
